Patent publication EP0705258B1, “AZOLYL-CYCLIC AMINE DERIVATIVES WITH IMMUNOMODULATORY ACTIVITY” (Knoll AG, priority 1993, dated 1995)

tested on: paw oedema; experiment: Carrageenan-induced rat paw oedema test (Test E); assay type: in vivo, rats; settings: oral dosing at 100 mg/kg; active = 20% or greater inhibition of paw oedema in at least two out of three tests
Experimental: Female rats, weight range 125-150 g were fasted overnight. One of the hind legs of each animal was marked with a line at the connection between the cuboid/navicular and calcaneus/talus bones. Groups of six rats were orally dosed at 10 ml/kg, in random order, with a given dose of the test compound given as a solution or suspension in 10% (w/v) aqueous acacia solution. One hour after dosing, 0.1 ml of 1% (w/v) sterile carrageenan λ in normal saline was injected deeply into the plantar surface of the marked hind foot of each rat. The volume of the foot (up to the marked line) was measured immediately after injection using duplicate water displacement readings. Three hours after injection the foot volume was measured again and the percentage increase in foot volume relative to the initial reading was calculated. The increase in foot volume (i.e. the degree of oedema) in drug treated animals when compared with that in the drug untreated control gave the degree of inhibition of paw oedema by the drug. […] Statistical significance was assessed using the Student's t test for single dose studies and Dunnett's test for multiple dose studies. More advantageous compounds were active in both Tests D and E.

Compound	deemed to be active in Test E
c1ccc(OCCN2CCC(CCn3ccnc3)CC2)cc1 [Example 87, 4-[2-(Imidazol-1-yl)ethyl]-1-(2-phenoxyethyl)piperidine]	active
CC(c1ccc(Cl)cc1)N1CCC(CCn2ccnc2)CC1 (stereo not shown) [Example 93, 1-[1-(4-chlorophenyl)ethyl]-4-[2-(imidazol-1-yl)-ethyl]piperidine]	active
Cl.Cl.c1ccc(CCCN2CCC(CCn3ccnc3)CC2)cc1 [Example 98, 4-[2-(imidazol-1-yl)ethyl]-1-(3-phenylpropyl)piperidine dihydrochloride]	active

tested on: Zymosan Stimulated Macrophages; experiment: Inhibition of Arachidonic Acid Release from Zymosan Stimulated Macrophages (Test D); assay type: cell-based, MF1 mice; settings: Mus musculus, Macrophage, tested at 100, 50, 20, 10, 5 and 1 µM
Experimental: Female MF1 mice (weighing 20 to 25 g) were killed using a rising concentration of CO2. The mice were laid on their backs and the abdomens wiped with 70% alcohol. The skin was pulled back, exposing the peritoneal wall. Medium A (5 ml) (see below) was injected into the peritoneal cavity of each mouse followed by approximately 1 ml of air using a 20 ml syringe and a 21G x 40 mm needle in order to form a suspension of macrophage cells. The medium and cells were then removed using a 19G x 40 mm needle. The resulting suspension was returned to a sterile beaker kept on ice. The extracts from all the mice were pooled and this pooled cell suspension was counted using a Coulter counter and adjusted to a final cell count of 1 - 1.3 x 10^6 cells/ml prior to labelling with [^3H]-arachidonic acid. Typically five mice provided sufficient cells for each multiwell plate. Sufficient [^3H]arachidonic acid in ethanol to give a final concentration of 1.6 µCi/ml (equivalent to 40 µCi/plate) was blown to dryness under nitrogen. The arachidonic acid was then resuspended in 1 or 2 ml of the cell suspension which was then mixed with the remainder of the cell suspension in a centrifuge bottle. The labelled cell suspension was then plated out into sterile plastic 96 flat-bottomed well plates (250 µl per well) and incubated overnight at 37°C in a moist atmosphere of 5% CO2, 95% air. The following day, non-adherent cells were removed by washing 3 times with sterile phosphate buffered saline (PBS). The adherent peritoneal macrophages were then cultured for a further 24 hours in the presence or absence of drugs, in medium B (see below) at 37° in a 5% CO2 atmosphere in order to measure the effects of drugs on the spontaneous release of arachidonic acid in the absence of stimulus. After this incubation, supernatants were removed to give media 1 and stored in sealed multi-well plates at 4°C prior to scintillation counting. Drugs which potentiated spontaneous release of arachidonic acid (125% of controls) were deemed to be toxic at the concentration at which this phenomenon occurred. The supernatants were replaced by fresh medium C containing fresh drug and a stimulus. Three drugs were tested at six concentrations (100, 50, 20, 10, 5 and 1 µM) in replicates of four on each plate. The other wells contained controls consisting of a positive control (e.g. dexamethasone), medium (B) only and medium C only. Incubation was then continued for a further 5 hours, whereupon the supernatants were collected to give media 2 and the adherent cells washed with PBS. The cells were then lysed with 100 µl of 0.1% TRITON® X100 in a 0.1% solution of bovine serum albumin in 0.9% saline and mechanically disrupted to give cell lysates. These supernatants (media 2) and cell lysates (Cells) were also stored in sealed multi-well plates at 4°C prior to scintillation counting. 200 µl aliquots of media, or 100 µl aliquots of cells were counted using 2 ml of OPTIPHASE "HIGH SAFE" (Trademark of LKB) as scintillant. […] The value for the arachidonic acid release in the absence of stimulus (spontaneous, cpm of media 2) from cells which had been exposed to neither stimulus nor drug was subtracted from all equivalent values (cpm media 2, stimulated with or without drug) to give the net stimulated release. The percentage inhibition of arachidonic acid release caused by a drug may then be calculated using the following equation. % Inhibition = 100 -(net stimulated release in presence of drug x 100)/(net stimulated release in absence of drug) [formula] […] The zymosan stimulant was prepared as follows:- zymosan (200mg) (supplied by Sigma) was added to PBS (20ml). The mixture was boiled for 30 minutes and the volume restored to 20ml with water. The zymosan was harvested by centrifugation at 500Xg for 5 minutes, washed twice by resuspension in PBS (10ml) and centrifugation. After the final separation, the zymosan was resuspended in 20ml PBS and stored as lml aliquots at -20°C. […]

Compound	IC50
c1ccc(OCCN2CCC(CCn3ccnc3)CC2)cc1 [Example 87, 4-[2-(Imidazol-1-yl)ethyl]-1-(2-phenoxyethyl)piperidine]	18 µM
C(=Cc1ccccc1)CN1CCC(CCn2ccnc2)CC1 [Example 90, 1-Cinnamyl-4-[2-(imidazol-1-yl)ethyl]-piperidine]	31 µM
O=C(CN1CCC(CCn2ccnc2)CC1)Nc1ccc(C(F)(F)F)cc1 [Example 91, 4-[2-(Imidazol-1-yl)ethyl]piperidino-4'-trifluoromethylacetanilide]	17 µM
CC(c1ccc(Cl)cc1)N1CCC(CCn2ccnc2)CC1 (stereo not shown) [Example 93, 1-[1-(4-chlorophenyl)ethyl]-4-[2-(imidazol-1-yl)-ethyl]piperidine]	56 µM
c1ccc(CCCN2CCC(CCn3ccnc3-c3ccccc3)CC2)cc1 [Example 109, 4-[2-(2-Phenylimidazol-1-yl)ethyl]-1-(3-phenylpropyl)piperidine]	14 µM
Cc1nc2ccccc2n1CCC1CCN(CCCc2ccccc2)CC1 [Example 112, 2-Methyl-1-{2-[1-(3-phenylpropyl)piperidin-4-yl]ethyl}benzimidazole]	16 µM
c1ccc(CCCN2CCC(CCn3cnc4ccccc43)CC2)cc1 [Example 114, 1-{2-[1-(3-Phenylpropyl)piperidin-4-yl]-ethyl}benzimidazole]	34 µM
Cc1nc(Cl)c(Cl)n1CCC1CCN(CCCc2ccccc2)CC1 [Example 115, 4-[2-(4,5-Dichloro-2-methylimidazol-1-yl)ethyl]-1-(3-phenylpropyl)piperidine]	31 µM
Cc1ncn(CCC2CCN(CCCc3ccccc3)CC2)c1C [Example 116, 4-[2-(4,5-Dimethylimidazol-1-yl)ethyl]-1-(3-phenylpropyl)piperidine]	18 µM
CSc1ccc(CCCN2CCC(CCn3ccnc3)CC2)cc1 [Example 127, 4-[2-(Imidazol-1-yl)ethyl]-1-[3-(4-methylthiophenyl)propyl]piperidine]	16 µM

Now from value to compound:

IC50	Compound
62 µM	Cl.Cl.c1ccc(CCCN2CCC(CCn3ccnc3)CC2)cc1 [Example 98, 4-[2-(imidazol-1-yl)ethyl]-1-(3-phenylpropyl)piperidine dihydrochloride]
54 µM	c1ccc(CCCN2CCC(Cn3ccnc3)CC2)cc1 [Example 102, 4-Imidazol-1-ylmethyl-1-(3-phenylpropyl)piperidine]
28 µM	CC1CN(CCCc2ccccc2)CCC1CCn1ccnc1 (stereo not shown) [Example 103, 4-[2-(Imidazol-1-yl)ethyl]-3-methyl-1-(3-phenylpropyl)piperidine]
33 µM	CC(Cn1ccnc1)C1CCN(CCCc2ccccc2)CC1 (stereo not shown) [Example 113, 4-[2-(Imidazol-1-yl)-1-methylethyl]-1-(3-phenylpropyl)piperidine]
21 µM	Cc1nccn1CCC1CCN(CCCc2ccccc2)CC1 [Example 117, 4-[2-(2-Methylimidazol-1-yl)ethyl]-1-(3-phenylpropyl)piperidine]
52 µM	Cc1ccc(CCCN2CCC(CCn3ccnc3)CC2)cc1 [Example 122, 4-[2-(Imidazol-1-yl)ethyl]-1-[3-(4-methylphenyl)propyl]piperidine]
35 µM	Clc1ccc(CCCN2CCC(CCn3ccnc3)CC2)cc1 [Example 123, 1-[3-(4-Chlorophenyl)propyl]-4-[2-(imidazol-1-yl)ethyl]piperidine]
27 µM	c1ccc(CCN2CCC(CCn3ccnc3)CC2)cc1 [Example 128, 4-[2-(Imidazol-1-yl)ethyl]-1-phenethylpiperidine]
16 µM	c1ccc(CCCCN2CCC(CCn3ccnc3)CC2)cc1 [Example 129, 4-[2-(Imidazol-1-yl)ethyl]-1-(4-phenylbutyl)piperidine]
